Results published in article PMC11237035, “Glutathione determines chronic myeloid leukemia vulnerability to an inhibitor of CMPK and TMPK” (Communications Biology, 2024).
“And” between values parts separate entries of the source, which are not always exact repeats. Equal values may be shown once.

Experiments:
Assay type in all cases: cell-based, mouse
[1] = tested on: WT-Bcr-Abl-32D cells; experiment: DNA fiber assay (replication speed), WT-Bcr-Abl-32D cells; conditions: NAC 1 mM, 16 h
Procedure: (§1) The workflow of DNA fiber labeling (Right). The representative labeled fibers are shown below. Replication speed in kb/min was calculated by the measured length of IdU (green) linking to CldU (red) in μm with a conversion factor of 0.34 μm/kb divided by the duration of the labeling pulse (Scale bar = 10 μm). The gray triangle indicates the boundary between red fluorescence and green fluorescence. c The measurement of intracellular ROS by the fluorescence intensity of CellROX Green staining using flow cytometric analysis. Data are presented as mean intensity relative to untransformed 32D cells. d, e The measurement of GSSG and GSH. […] Schematic illustration of the metabolic path U-^13C glutamine incorporation into the GSH (left). Gray and white circles indicate ^13C-label, and unlabeled ^12C, respectively. The traced isotopologue abundance of GSH is shown (right).
(§2) The DNA fiber assay was performed as described previously. Briefly, cells were sequentially treated with the medium containing 25 μM of CldU (Sigma-Aldrich, C6891) and then 250 μM of IdU (Sigma-Aldrich, I7125) for 20 min. After washing, cells were suspended in PBS (1000 cells/ μL). 2 μL of cell suspension was spotted on slides. […] The lengths of red- and green-labeled fibers were determined by FluoView3.0 software (Olympus).

[2] = tested on: WT-Bcr-Abl-32D cells; experiment: CCK-8 cell viability assay, WT-Bcr-Abl-32D cells; conditions: WT-Bcr-Abl, single replicates
[3] = tested on: WT-Bcr-Abl-32D cells; experiment: GSH/GSSG-Glo measurement, WT-Bcr-Abl-32D cells
From the text: (§3) The GSH/GSSG-Glo™ Assay Kit (Promega, V6611) was used for luminescent-based measurement of cellular GSH and GSSG by Tecan Spark 10 microplate reader.

[4] = tested on: WT-Bcr-Abl-32D cells; experiment: Western blot of tyrosine phosphorylation and Bcr-Abl downstream signaling, WT-Bcr-Abl-32D cells
From the text: (§4) Supplementary Figure 1. Bcr-Abl-activated downstream signaling in WT- and
(§5) The comparison of Bcr-Abl downstream signaling (Akt, mTorC1, and Stat5) in WT- […]

[5] = tested on: T315I-Bcr-Abl-32D cells; experiment: Western blot of tyrosine phosphorylation and Bcr-Abl downstream signaling, T315I-Bcr-Abl-32D cells
From the text: as §4, §5

[6] = tested on: untransformed 32D cells; experiment: Western blot of tyrosine phosphorylation, untransformed 32D cells; conditions: 32D progenitor cells, 2 μM, 4 h, pY99 Western blot
[7] = tested on: T315I-Bcr-Abl-32D cells; experiment: DNA fiber assay (replication speed), T315I-Bcr-Abl-32D cells; conditions: T315I-Bcr-Abl-32D cells, BSO 12.5 μM, 16 h
Procedure: as §1, §2

[8] = tested on: T315I-Bcr-Abl-32D cells; experiment: CCK-8 cell viability assay, T315I-Bcr-Abl-32D cells; conditions: for viability (0 = 100): T315I-Bcr-Abl
[9] = tested on: T315I-Bcr-Abl-32D cells; experiment: GSH/GSSG-Glo measurement, T315I-Bcr-Abl-32D cells
From the text: as §3

[10] = tested on: untransformed 32D cells; experiment: CCK-8 cell viability assay, untransformed 32D cells; conditions: for viability (0 = 100): Untransformed
Procedure: After 72 h, viability assays were performed.
3 independent experiments. Asterisks denote ***p<0.001 from non-paired two-tailed

[11] = AraC 0.25 μM, single replicates

CC(=O)N[C@@H](CS)C(=O)O [NAC, N-Acetyl-Cysteine]
lengths of replication tracks [1]: increased lengths of replication tracks | cell viability (% of NT vehicle), Figure 5h ([2]; NAC with vehicle): 96.5592 and 69.512 and 104.601 | GSH% ([3]; Figure 5f, WT-Bcr-Abl, NAC vs NT = 100, single replicates): 161.382% and 219.818% and 187.248% and 315.164% | cellular GSH level ([3]; WT-Bcr-Abl-32D cells, NAC 1 mM, 16 h): increased the cellular GSH level

Cc1ccc(C(=O)Nc2ccc(CN3CCN(C)CC3)c(C(F)(F)F)c2)cc1C#Cc1cnc2cccnn12 [ponatinib]
Bcr-Abl downstream signals (pAkt-S473, pS6K-T389, pStat5-Y694) [4]: abolished these signals | level of overall tyrosine phosphorylation [4]: reduced | Bcr-Abl downstream signals (pAkt-S473, pS6K-T389, pStat5-Y694) [5]: abolished these signals | level of overall tyrosine phosphorylation [5]: reduced | basal level of tyrosine phosphorylation [6]: also reduced

CCCCS(=N)(=O)CCC(N)C(=O)O (stereo not shown) [BSO, buthionine sulphoximine]
lengths of replication tracks [7]: reduced | cell viability (% of NT, 0 JMF4073), Figure 5e ([8]; T315I, BSO alone (JMF4073 0), single replicates): 99.4456 and 92 and 86.6884 | growth of cells, BSO alone ([8]; T315I-Bcr-Abl cells, BSO treatment alone): did not suppress the growth | GSH% ([9]; Figure 5c, T315I-Bcr-Abl, BSO vs NT = 100, single replicates): 10.69% and 9.7% and 22.3% | cellular level of GSH ([9]; T315I-Bcr-Abl-32D cells, BSO 12.5 μM, 16 h): reduced | viability (vehicle, 0 = 100) ([10]; 32D cells, BSO 12.5 μM alone (JMF4073 0), single replicates): 83.2384 and 115 and 94.5481

Nc1ccn([C@@H]2O[C@H](CO)[C@@H](O)[C@@H]2O)c(=O)n1 [ara-C, cytosine arabinoside]
viability (0 = 100) [8, 11]: 91.0147 and 59.6875 and 56.2982 | viability (0 = 100) ([8]; AraC 0.5 μM, single replicates): 23.443 and 24.5051 and 17.9316 | viability (0 = 100) ([8]; AraC 1 μM, single replicates): 4.479 and 5.149 and 3.231 | viability (0 = 100) ([8]; AraC 2 μM, single replicates): 0.8258 and 1.3128 and 0.8788 | viability (0 = 100) ([2]; AraC 0.25 μM): 45.2109 and 73.8346 and 101.332 | viability (0 = 100) ([2]; AraC 0.5 μM): 24.4529 and 41.8769 and 43.1257 | viability (0 = 100) ([2]; AraC 1 μM): 7.238 and 10.5227 and 12.1803 | viability (0 = 100) ([2]; AraC 2 μM): 1.535 and 1.964 and 2.059 | viability (0 = 100) [10, 11]: 80.5922 and 25.4877 and 20.7295 | viability (0 = 100) ([10]; AraC 0.5 μM, single replicates): 32.0177 and 10.1455 and 8.811 | viability (0 = 100) ([10]; AraC 1 μM, single replicates): 12.3749 and 4.297 and 2.7153 | viability (0 = 100) ([10]; AraC 2 μM, single replicates): 4.929 and -0.8077 and -0.4748 | sensitivity compared among WT-, T315I-Bcr-Abl-32D and untransformed 32D progenitor cells ([10]; viability assays): similar
